{
  "source": "patent US9802960B2",
  "about": "(MILLENNIUM PHARMACEUTICALS, INC., priority 2014, dated 2017)",
  "data": [
    {"molecular_target": "Human VPS34 (Homo sapiens (Human), UniProt Q8NEB9)", "sequence (Q8NEB9 whole entry)": "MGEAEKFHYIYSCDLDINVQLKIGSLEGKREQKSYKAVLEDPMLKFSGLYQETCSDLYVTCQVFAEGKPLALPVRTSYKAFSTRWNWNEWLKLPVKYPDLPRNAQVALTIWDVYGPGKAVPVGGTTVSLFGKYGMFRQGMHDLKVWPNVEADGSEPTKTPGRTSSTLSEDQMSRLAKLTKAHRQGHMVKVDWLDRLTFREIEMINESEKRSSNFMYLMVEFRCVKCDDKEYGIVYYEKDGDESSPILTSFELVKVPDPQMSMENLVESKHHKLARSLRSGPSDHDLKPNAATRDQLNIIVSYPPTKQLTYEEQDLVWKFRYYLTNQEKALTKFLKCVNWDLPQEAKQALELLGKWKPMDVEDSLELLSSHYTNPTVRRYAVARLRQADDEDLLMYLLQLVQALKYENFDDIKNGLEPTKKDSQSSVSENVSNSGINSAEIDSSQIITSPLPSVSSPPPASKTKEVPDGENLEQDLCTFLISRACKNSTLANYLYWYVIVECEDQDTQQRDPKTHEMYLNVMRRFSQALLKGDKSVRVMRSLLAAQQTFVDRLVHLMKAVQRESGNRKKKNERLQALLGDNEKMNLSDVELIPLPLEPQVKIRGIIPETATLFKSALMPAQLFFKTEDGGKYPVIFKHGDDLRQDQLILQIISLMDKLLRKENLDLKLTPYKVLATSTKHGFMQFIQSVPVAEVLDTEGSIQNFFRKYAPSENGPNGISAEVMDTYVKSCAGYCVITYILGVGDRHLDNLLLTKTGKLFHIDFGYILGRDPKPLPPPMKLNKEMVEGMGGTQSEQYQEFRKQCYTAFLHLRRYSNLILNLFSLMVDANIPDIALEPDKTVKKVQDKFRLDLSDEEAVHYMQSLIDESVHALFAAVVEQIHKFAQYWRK", "assay": "Human VPS34 enzyme assay (Adapta TR-FRET)", "assay_type": "biochemical", "conditions": "compound concentration 1.11 μM; read-out: Percent Inhibition", "units": {"inhibition at 1.11 µM": "%"}, "values": [
      {"smiles": "CC(=O)Nc1cc(-c2cnc(N)c(S(=O)(=O)Nc3ccc(F)cc3F)c2)ccn1", "note": "[Compound I-170, N-{6-amino-5-[(2,4-difluorophenyl)sulfamoyl]-3,4′-bipyridin-2′-yl}acetamide]", "inhibition at 1.11 µM": "> 99"},
      {"smiles": "COC(=O)Nc1cc(-c2cnc(N)c(S(=O)(=O)N(C)C)c2)ccn1", "note": "[Compound I-171, Methyl [6-amino-5-(dimethylsulfamoyl)-3,4′-bipyridin-2′-yl]carbamate]", "inhibition at 1.11 µM": "> 99"},
      {"smiles": "CNc1ncc(-c2ccnc(NC(C)=O)c2)cc1S(=O)(=O)N(C(C)C)C(C)C", "note": "[Compound I-173, N-[5-(diisopropylsulfamoyl)-6-(methylamino)-3,4′-bipyridin-2′-yl]acetamide]", "inhibition at 1.11 µM": "> 99"},
      {"smiles": "CC(=O)Nc1cc(-c2cnc(N(C)C)c(C(=O)N(C)c3ccc(F)cc3F)c2)ccn1", "note": "[Compound I-174, 2′-Acetamido-N-(2,4-difluorophenyl)-6-(dimethylamino)-N-methyl-[3,4′-bipyridine]-5-carboxamide]", "inhibition at 1.11 µM": "> 99"},
      {"smiles": "CC(=O)Nc1cc(-c2cnc(N)c(S(=O)(=O)C(C)C)c2)ccn1", "note": "[Compound I-175, N-[6-amino-5-(isopropylsulfonyl)-3,4′-bipyridin-2′-yl]acetamide]", "inhibition at 1.11 µM": "> 99"},
      {"smiles": "CC(=O)Nc1cc(-c2cnc3[nH]cc(S(=O)(=O)c4ccccc4)c3c2)ccn1", "note": "[Compound I-176, N-{4-[3-(phenylsulfonyl)-1H-pyrrolo[2,3-b]pyridin-5-yl]pyridin-2-yl}acetamide]", "inhibition at 1.11 µM": "> 99"},
      {"smiles": "CC(=O)Nc1cc(-c2cnc(C)c(NS(=O)(=O)c3ccc(F)cc3F)c2)c(C)cn1", "note": "[Compound I-177, N-(5-{[(2,4-difluorophenyl)sulfonyl]amino}-5′,6-dimethyl-3,4′-bipyridin-2′-yl)acetamide]", "inhibition at 1.11 µM": "> 99"},
      {"smiles": "CC(=O)Nc1cc(-c2cnc(C)c(NS(=O)(=O)c3cc(C)ccc3C)c2)ccn1", "note": "[Compound I-178, N-(5-{[(2,5-dimethylphenyl)sulfonyl]amino}-6-methyl-3,4′-bipyridin-2′-yl)acetamide]", "inhibition at 1.11 µM": "> 99"},
      {"smiles": "CC(=O)Nc1cc(-c2cnc(N)c(C(=O)Nc3cccc(F)c3F)c2)ccn1", "note": "[Compound I-179, 2′-acetamido-6-amino-N-(2,3-difluorophenyl)-3,4′-bipyridine-5-carboxamide]", "inhibition at 1.11 µM": "> 99"},
      {"smiles": "COC(=O)Nc1cc(-c2cncc(C(=O)C3CC3)c2)ccn1", "note": "[Compound I-180, methyl[5-(cyclopropylcarbonyl)-3,4′-bipyridin-2′-yl]carbamate]", "inhibition at 1.11 µM": "> 99"},
      {"smiles": "CC(=O)Nc1cc(-c2cnc(N)c(N3CCCS3(=O)=O)c2)ccn1", "note": "[Compound I-181, N-[6-amino-5-(1,1-dioxidoisothiazolidin-2-yl)-3,4′-bipyridin-2′-yl]acetamide]", "inhibition at 1.11 µM": "> 99"},
      {"smiles": "CC(=O)Nc1cc(-c2cnc(C)c(NS(=O)(=O)c3ccc(C)cc3F)c2)ccn1", "note": "[Compound I-182, N-(5-{[(2-fluoro-4-methylphenyl)sulfonyl]amino}-6-methyl-3,4′-bipyridin-2′-yl)acetamide]", "inhibition at 1.11 µM": "> 99"},
      {"smiles": "CC(=O)Nc1cc(-c2cnc(N)c(S(=O)(=O)NCC3CCCCC3)c2)ccn1", "note": "[Compound I-183, N-{6-amino-5-[(cyclohexylmethyl)sulfamoyl]-3,4′-bipyridin-2′-yl}acetamide]", "inhibition at 1.11 µM": "> 99"},
      {"smiles": "CC(=O)Nc1cc(-c2cncc(C=O)c2)ccn1", "note": "[Compound I-184, N-(5-formyl-3,4′-bipyridin-2′-yl)acetamide]", "inhibition at 1.11 µM": 74},
      {"smiles": "CC(=O)Nc1cc(-c2cnc(C)c(NS(=O)(=O)c3ccc(F)cc3)c2)ccn1", "note": "[Compound I-185, N-(5-{[(4-fluorophenyl)sulfonyl]amino}-6-methyl-3,4′-bipyridin-2′-yl)acetamide]", "inhibition at 1.11 µM": "> 99"},
      {"smiles": "CC(=O)Nc1cc(-c2cnc(N)c(C(=O)NC34CC(C3)C4)c2)ccn1", "note": "[Compound I-187, 2′-acetamido-6-amino-N-(bicyclo[1.1.1]pent-1-yl)-3,4′-bipyridine-5-carboxamide]", "inhibition at 1.11 µM": "> 99"},
      {"smiles": "CC(=O)Nc1cc(-c2cncc(/C=C/C(=O)c3ccc(F)cc3)c2)ccn1", "note": "[Compound I-188, N-{5-[(1E)-3-(4-fluorophenyl)-3-oxoprop-1-en-1-yl]-3,4′-bipyridin-2′-yl}acetamide]", "inhibition at 1.11 µM": 98},
      {"smiles": "CC(=O)Nc1cc(-c2cnc3[nH]ncc3c2)ccn1", "note": "[Compound I-189, N-[4-(1H-pyrazolo[3,4-b]pyridin-5-yl)pyridin-2-yl]acetamide]", "inhibition at 1.11 µM": "> 99"},
      {"smiles": "CC(=O)Nc1cc(-c2cncc(S(=O)(=O)NC34CC(C3)C4)c2)ccn1", "note": "[Compound I-190, N-[5-(bicyclo[1.1.1]pent-1-ylsulfamoyl)-3,4′-bipyridin-2′-yl]acetamide]", "inhibition at 1.11 µM": 96},
      {"smiles": "CC(=O)Nc1cc(-c2cc(S(C)(=O)=O)c[n+]([O-])c2)ccn1", "note": "[Compound I-191, N-{4-[5-(methylsulfonyl)-1-oxidopyridin-3-yl]pyridin-2-yl}acetamide]", "inhibition at 1.11 µM": 77},
      {"smiles": "CC(=O)Nc1cc(-c2cncc(N3CCCS3(=O)=O)c2)ccn1", "note": "[Compound I-192, N-[5-(1,1-dioxidoisothiazolidin-2-yl)-3,4′-bipyridin-2′-yl]acetamide]", "inhibition at 1.11 µM": "> 99"},
      {"smiles": "CC(=O)Nc1cc(-c2cnc(C)c(NC(C)=O)c2)ccn1", "note": "[Compound I-193, N,N′-(6-methyl-3,4′-bipyridine-2′,5-diyl)diacetamide]", "inhibition at 1.11 µM": "> 99"},
      {"smiles": "CC(=O)Nc1cc(-c2cncc(C(C)=O)c2)ccn1", "note": "[Compound I-194, N-(5-acetyl-3,4′-bipyridin-2′-yl)acetamide]", "inhibition at 1.11 µM": 62},
      {"smiles": "COC(=O)Nc1cc(-c2cnc(C)c(NS(=O)(=O)c3ccc(F)cc3F)c2)ccn1", "note": "[Compound I-195, methyl (5-{[(2,4-difluorophenyl)sulfonyl]amino}-6-methyl-3,4′-bipyridin-2′-yl)carbamate]", "inhibition at 1.11 µM": "> 99"},
      {"smiles": "CC(=O)Nc1cc(-c2cnc(C)c(NS(=O)(=O)c3ccc(C(F)(F)F)cc3Cl)c2)ccn1", "note": "[Compound I-196, N-[5-({[2-chloro-4-(trifluoromethyl)phenyl]sulfonyl}amino)-6-methyl-3,4′-bipyridin-2′-yl]acetamide]", "inhibition at 1.11 µM": "> 99"},
      {"smiles": "CC(=O)Nc1cc(-c2cnc(N)c(S(=O)(=O)Cc3ccccc3F)c2)ccn1", "note": "[Compound I-197, N-{6-amino-5-[(2-fluorobenzyl)sulfonyl]-3,4′-bipyridin-2′-yl}acetamide]", "inhibition at 1.11 µM": "> 99"},
      {"smiles": "CC(=O)Nc1cc(-c2cncc(C(=O)/C=C/c3ccc(F)cc3)c2)ccn1", "note": "[Compound I-198, N-{5-[(2E)-3-(4-fluorophenyl)prop-2-enoyl]-3,4′-bipyridin-2′-yl}acetamide]", "inhibition at 1.11 µM": 68},
      {"smiles": "CC(=O)Nc1cc(-c2cnc3ccn(S(=O)(=O)C4CC4)c3c2)ccn1", "note": "[Compound I-199, N-{4-[1-(cyclopropylsulfonyl)-1H-pyrrolo[3,2-b]pyridin-6-yl]pyridin-2-yl}acetamide]", "inhibition at 1.11 µM": "> 99"},
      {"smiles": "CC(=O)Nc1cc(-c2cnc(N)c(C(=O)N3CCC3)c2)ccn1", "note": "[Compound I-200, N-[6-amino-5-(azetidin-1-ylcarbonyl)-3,4′-bipyridin-2′-yl]acetamide]", "inhibition at 1.11 µM": "> 99"},
      {"smiles": "CCc1ncc(-c2ccnc(NC(C)=O)c2)cc1NS(=O)(=O)c1ccc(F)cc1F", "note": "[Compound I-201, N-(5-{[(2,4-difluorophenyl)sulfonyl]amino}-6-ethyl-3,4′-bipyridin-2′-yl)acetamide]", "inhibition at 1.11 µM": "> 99"},
      {"smiles": "CC(=O)Nc1cc(-c2cncc(N(CC3CC3)S(C)(=O)=O)c2)ccn1", "note": "[Compound I-202, N-{5-[(cyclopropylmethyl)(methylsulfonyl)amino]-3,4′-bipyridin-2′-yl}acetamide]", "inhibition at 1.11 µM": "> 99"},
      {"smiles": "CC(=O)Nc1cc(-c2cnc(C)c(NS(=O)(=O)c3ccsc3)c2)ccn1", "note": "[Compound I-203, N-{6-methyl-5-[(3-thienylsulfonyl)amino]-3,4′-bipyridin-2′-yl}acetamide]", "inhibition at 1.11 µM": "> 99"},
      {"smiles": "CC(=O)Nc1cc(-c2cnc(N)c(S(=O)(=O)Nc3cccnc3)c2)ccn1", "note": "[Compound I-204, N-[6-amino-5-(pyridin-3-ylsulfamoyl)-3,4′-bipyridin-2′-yl]acetamide]", "inhibition at 1.11 µM": "> 99"},
      {"smiles": "CC(=O)Nc1cc(-c2cnc(N)c(S(=O)(=O)Cc3cccnc3)c2)ccn1", "note": "[Compound I-205, N-{6-amino-5-[(pyridin-3-ylmethyl)sulfonyl]-3,4′-bipyridin-2′-yl}acetamide]", "inhibition at 1.11 µM": "> 99"},
      {"smiles": "CC(=O)Nc1cc(-c2cnc(C)c(NS(=O)(=O)c3ccc(F)cc3Cl)c2)ccn1", "note": "[Compound I-206, N-(5-{[(2-chloro-4-fluorophenyl)sulfonyl]amino}-6-methyl-3,4′-bipyridin-2′-yl)acetamide]", "inhibition at 1.11 µM": "> 99"},
      {"smiles": "CC(=O)Nc1cc(-c2cnc(N)c(S(=O)(=O)Nc3ccc(Cl)cc3)c2)ccn1", "note": "[Compound I-207, N-{6-amino-5-[(4-chlorophenyl)sulfamoyl]-3,4′-bipyridin-2′-yl}acetamide]", "inhibition at 1.11 µM": "> 99"},
      {"smiles": "CC(=O)Nc1cc(-c2cnc3[nH]ncc3c2)c(C)cn1", "note": "[Compound I-209, N-[5-methyl-4-(1H-pyrazolo[3,4-b]pyridin-5-yl)pyridin-2-yl]acetamide]", "inhibition at 1.11 µM": 49},
      {"smiles": "CC(=O)Nc1cc(-c2cnc(N)c(C(=O)NC3CCOCC3)c2)ccn1", "note": "[Compound I-210, 2′-acetamido-6-amino-N-(tetrahydro-2H-pyran-4-yl)-3,4′-bipyridine-5-carboxamide]", "inhibition at 1.11 µM": "> 99"},
      {"smiles": "CC(=O)Nc1cc(-c2cnc(C)c(NS(=O)(=O)c3ccccc3C)c2)ccn1", "note": "[Compound I-211, N-(6-methyl-5-{[(2-methylphenyl)sulfonyl]amino}-3,4′-bipyridin-2′-yl)acetamide]", "inhibition at 1.11 µM": "> 99"},
      {"smiles": "CC(=O)Nc1cc(-c2cnc(C)c(N(C)S(=O)(=O)C3CC3)c2)ccn1", "note": "[Compound I-212, N-{5-[(cyclopropylsulfonyl)(methyl)amino]-6-methyl-3,4′-bipyridin-2′-yl}acetamide]", "inhibition at 1.11 µM": 95}
    ]},
    {"molecular_target": "Human VPS34 (Homo sapiens (Human), UniProt Q8NEB9)", "assay": "Human VPS34 enzyme assay (Adapta TR-FRET)", "assay_type": "biochemical", "conditions": "read-out: Percent Inhibition", "units": {"inhibition at 1.11 µM": "%"}, "values": [
      {"smiles": "CC(=O)Nc1cc(-c2cnc(N)c(S(=O)(=O)Cc3ccccc3Cl)c2)ccn1", "note": "[Compound I-172, N-{6-amino-5-[(2-chlorobenzyl)sulfonyl]-3,4′-bipyridin-2′-yl}acetamide]", "inhibition at 1.11 µM": "> 99"},
      {"smiles": "CC(=O)Nc1cc(-c2cnc(N)c(S(=O)(=O)N(C)C)c2)c(F)cn1", "note": "[Compound I-186]", "inhibition at 1.11 µM": "> 99"},
      {"smiles": "CC(=O)Nc1cc(-c2cnc(N)c(S(=O)(=O)CC3CC3)c2)ccn1", "note": "[Compound I-208]", "inhibition at 1.11 µM": "> 99"}
    ]}
  ]
}
